Series [1] in a line: Brain microdialysis, free brain and plasma concentration-time profiles. In kind it is in vivo. The note with it: male, Wistar, sc, rat, 30 µmol/kg s.c., read-out: Cu,br/Cu,pl in microdialysis. Here is the method: Adult male Wistar rats (280–350 g; Harlan, Horst, The Netherlands) were used for the experiments.
Rats were anesthetized using isoflurane 2% and O2. Before the surgery, Fynadine (1 mg/kg s.c.) was administered for analgesia during surgery and recovery. A mixture of Marcaine and adrenaline was used for local anesthesia on the head. Implantation of a microdialysis probe into the brain and a catheter into the right jugular vein was performed in the same surgical procedure. After surgery animals were housed individually (cages 30×30×40 cm), food and water was ad libitum available. Surgery was carried out at least 24 hours before the start of the experiments.
Each animal was placed into a stereotaxic frame (Kopf instruments, USA). A non-metal guide cannula with a MetaQuant probe (MQ 6/4, regenerated cellulose membrane, 4 mm exposed surface, Brainlink, The Netherlands) was implanted with in the prefrontal cortex (PFC), its tip at the following coordinates: AP = 3.4 mm (to bregma), lateral 0.8 mm (to midline), ventral −5.0 mm (to dura) with Toothbar set at −3.3 mm, according to the atlas of Paxinos and Watson (1982). […]
To test whether probe recoveries were sufficiently high to enable quantitative measurements of brain extracellular concentrations in the in vivo microdialysis experiments, each of the compounds was subjected to an in vitro recovery test. […]

Series [2] in a line: Fraction unbound brain (fu,br), brain homogenate equilibrium dialysis. The note with it: brain homogenate (10%), 1 µM, equilibrium dialysis 18 hrs at 37°C. As to the method:
The degree of brain binding was assessed by equilibrium dialysis. Brain homogenate (10%) was spiked with test compound at 1 µM in triplicate. […] The plate was then placed in a shaker/incubator to equilibrate for 18 hrs at 37°C. […] After the addition of 50 µl of buffer to the brain homogenate samples, 150 µl of acetonitrile was added to each sample. Finally, 50 µl of water was added to all buffer and brain homogenate samples. The plates were centrifuged and the supernatant analyzed by LC-MS/MS.
On the technique in general: In equilibrium dialysis only unbound substance equilibrates across the membrane.

In the case of `CN1CCN(C2=Nc3cc(Cl)ccc3Nc3ccccc32)CC1` [Clozapine], the Kp at 30 min in series [1] (at 30 min) was found to be 0.04. Besides, in series [1] (at 240 min), the Kp at 240 min was determined as 1.71. In addition, the “fubrain (homog.) Mean” value in series [2] was 0.0094.
